Experimental data reported in a melting point compilation (Tetko et al.; mined from patent text by program, amines drawn as free bases though some values may be those of a salt).

| Compound | melting point [°C] |
| --- | --- |
| COC(=O)c1ccccc1-c1ccc(OC)cn1 | 130 to 132 |
| CCOC(=O)c1c(N)cc(C(F)(F)F)nc1C(F)(F)F | 43 to 45 |
| NC(=O)C(Sc1nc2cc(Cl)ccc2s1)c1ccccc1 (stereo not drawn) | 181 to 183 |
| O=c1oc2c(Br)cc(Br)cc2s1 | 104 to 106 |
| CC1(C)N=C(O)N=C(NC(=O)c2nc(Cl)c(N)nc2N)N1 | 266 to 268 |
| COC(=O)CCC(CS(=O)(=O)c1ccc2ccccc2c1)C(=O)N(CCC1CCCCC1)CCC1CCCCC1 (stereo not drawn) | 116 to 118 |
| O=C(NNC(=O)c1occ(-c2ccccc2)c1-c1ccccc1)c1ccoc1 | 180 to 183 |
| O=c1oc2cc(O)c(O)cc2c(O)c1-c1coc2c1c(=O)oc1cc(O)c(O)cc12 | > 300 |
| CC(C)N1CC(CO)C(c2ccccc2)(c2ccccc2)C1=O (stereo not drawn) | 159 to 161 |
| O=C(O)c1cc([N+](=O)[O-])ccc1C1SCCCS1 | 192 to 194 |
| COC(=O)COc1cc(N(C(=O)CCl)C(=O)C2=C(C(=O)OC)CCCC2)c(F)cc1Cl | 144 to 145 |
| N#Cc1ccc2c(c1)CC[C@@H]1CC(=O)CC[C@@]21Cc1ccccc1 | 128 to 129 |
| CCOC(=O)Cc1c(-c2ccc(Cl)cc2)nn2cc(Cl)cnc12 | 139 to 140 |
| CCc1ccc(-c2nc3ccccc3o2)cc1 | 84 to 86 |
| CC(=O)OCC1OC(n2cnc3c(NN4CCCCC4)nc(N)nc32)C(OC(C)=O)C1OC(C)=O (stereo not drawn) | 77 to 79 |
| O=C1CC(NC(=O)c2c[nH]c3ccccc23)CCCN1 (stereo not drawn) | 243 to 244 |
| CCOC(=O)c1cc(O)ccc1O | 81 to 82 |
| COc1nc(-c2ccccc2)c(-c2ccc(=O)n(C(C)C)n2)nc1C#N | 170 to 172 |
| OC(CN1CC=C(c2ccccc2)CC1)c1ccc(Cc2ccc(Cl)cc2)cc1 (stereo not drawn) | 135 to 137 |
| NC(=O)c1sc2nccc(N3CCC(c4ccccc4)CC3)c2c1N | 226 to 233 |
| O=C1COCCN1c1ccc(NC[C@H](O)CCl)cc1 | 138 to 139 |
| O=C(O)c1ccc(-c2nnn[nH]2)cc1Sc1ccccc1 | 239 to 240 |
| CCOC(=O)c1cc(F)c(N2CCC(NC(=O)OC(C)(C)C)C2)cc1F (stereo not drawn) | 98 to 100 |
| CCOC(=O)c1cn(C2CC2)c2c(C)c(N3CCN(Cc4ccccc4)C(C)C3)c(F)c(C)c2c1=O (stereo not drawn) | 128 to 129 |
| NC(=O)CNc1ncccc1[N+](=O)[O-] | 250 to 251 |

| Compound | melting point [°C] |
| --- | --- |
| CCOC(=O)Cc1cccc(-c2nc(COc3ccc(CCl)cc3OC)c(C)o2)c1 | 95 to 96 |
| CCCCOc1cc2ncnc(Nc3cccc(CC)c3)c2cc1OCCOC | 90 to 92 |
| CC(C)(N)C1CN([C@@H]2Cc3ccccc3[C@H]2Oc2ccc(C#N)cc2Cl)C1 | 93 |
| COc1ccc(Nc2c([N+](=O)[O-])cc([N+](=O)[O-])cc2C(F)(F)F)nc1 | 102 to 105 |
| CC(C)(Oc1ccc(NC(=O)Cc2ccccc2)cc1)C(=O)O | 173 to 175 |
| Cc1ccc2oc(Cc3nc4cc(C)ccc4o3)nc2c1 | 91 |
| N#CCC(=O)N1CC=CCC1 | 58 to 59 |
| CC(=O)OCCn1cc(C(N)=O)c([N+](=O)[O-])n1 | 139 to 141 |
| CC(C)c1ccc(S(=O)(=O)Nc2cnc(Cl)cc2I)cc1 | 160 |
| O=C(O)CCCCC(=O)NCc1ccc2c(c1)C(=O)N(C1CCC(=O)NC1=O)C2=O (stereo not drawn) | 144 to 146 |
| CC(=O)OC(c1ccccc1)C1C(=O)NC1S(C)(=O)=O (mixture of isomers) | 178 to 182 |
| O=C(O)CCc1oc(Sc2ccccn2)nc1-c1ccc(Cl)cc1 | 172 to 173 |
| O=C1CN=C(c2cccc(Cl)c2)c2cc(C(=O)c3ccc(Cl)cc3)ccc2N1 | 265 |
| CCCc1nc2c(N)nc3ccccc3c2n1CCC(=O)N(C)C | 207 to 209 |
| CNC(=O)c1oc(C(C)(C)C)cc1NC(=O)Nc1ccc(F)cc1 | 109 to 111 |
| Cc1ccc(S(=O)(=O)OCCC2CCc3ccccc3O2)cc1 (stereo not drawn) | 57 to 59 |
| CN1CCc2c(c3ccc(-n4ccc(-c5ccc(C(F)(F)F)nc5)cc4=O)cc3n2C)C1 | 295 to 300 |
| C[Si](C)(CCCc1nnc(N)nc1N)c1ccccc1 | 132 to 133 |
| COC(=O)C(Oc1cc(-n2c(=O)cc(C(F)(F)F)n(C)c2=O)c(F)cc1Cl)C(=O)OC | 141 |
| COc1ccc(NC(=O)N(Cc2ccccn2)Cc2ccc(F)cc2F)c(NC(=O)c2cc(C(C)(C)C)c(O)c(C(C)(C)C)c2)c1 | 176 to 178 |
| CCn1c(COc2ccc(CC3SC(=O)NC3=O)cc2)nc2cccnc21 (stereo not drawn) | 210 to 212 |
| Cc1noc2ncnc(NC3Cc4ccccc4C3)c12 | 208 |
| Cc1ccc2c3c(c(=O)oc2c1)CN(CCN1CC2CCCC(C2)C1)CC3 | 150 to 152 |
| Cc1onc(-c2ccccc2)c1C(=O)NCCCCl | 122 to 124 |
| CCOC(=O)c1nnnn1Cc1ccccc1[N+](=O)[O-] | 90 to 92 |

| Compound | melting point [°C] |
| --- | --- |
| COc1cccc(C(=O)N2CCN(CC3(C)Cc4c(C)c(N)c(C)c(C)c4O3)CC2)c1 (stereo not drawn) | 95 to 98 |
| COc1ccc(N2CCOCC2)c2sc(NC(=O)N(C)C3CCC(F)(F)CC3)nc12 | 189 to 192 |
| CC(=O)C(=O)NC(=O)[C@@H](N)Cc1ccccc1 | 138 to 140 |
| O=C(c1ccc(I)cc1)N1CCCCC1 | 126 to 127 |
| Cn1ncc(C(=O)N2CC(F)C2)c1C(=O)Nc1ccn2nc(N3CCOCC3)nc2c1 | 247 to 250 |
| COc1cccc(-c2nc3nccnc3[nH]2)c1 | 289 |
| Clc1cccc2c1C1(CO1)c1cccc(Cl)c1C21CO1 (stereo not drawn) | 172 to 178 |
| O=[N+]([O-])c1sc(Oc2ccccc2)nc1Cl | 96 |
| CS(=O)(=O)c1ccc(-c2cc(CCCC(=O)O)nn2-c2ccc(C(F)(F)F)cc2)cc1 | 155 to 156 |
| CCCCCCCCCC1SC(c2cccnc2)NC1=O (stereo not drawn) | 90 to 95 |
| Nc1ccccc1S(=O)(=O)c1cc(C(=O)O)ccc1Cl | 235 to 238 |
| O=C(O)c1nnn(Cc2ccccc2)n1 | 127 to 130 |
| CC(C)(C)OC(=O)Nc1cccc(-c2nc(=O)o[nH]2)c1 | 193 |
| CNC(=C[N+](=O)[O-])NCCSCc1nc(CN(C)C)sc1C | 104 to 106 |
| COc1cc2cnnc(N3CCC(=O)CC3)c2cc1OC | 180 to 181 |
| O=[N+]([O-])c1ccc2c(c1)ncn2-c1ccccc1 | 129 to 131 |
| CN1C(=O)CC[C@]2(C)c3ccc(C(=O)Oc4ccccc4)cc3CC[C@@H]12 | 194 to 196 |
| CCCCCCCCCCCCP(=O)(O)CCCNC(=O)OCc1ccccc1 | 115 to 116 |
| CCCOc1ccccc1-c1ccc(C#N)c(=S)[nH]1 | 127 to 128 |
| CCCCCCC(c1cccc(C(=O)NC(c2ccccc2)c2ccccc2)c1)c1nnn[nH]1 (stereo not drawn) | 198 to 200 |
| FC(F)(F)c1ccc2cc3[nH]c(=S)[nH]c3nc2c1 | > 320 |
| COc1ccc(CC(C(=O)n2ccnc2)C(C)(C)C)cc1 (stereo not drawn) | 89.5 to 91 |
| NC(=O)NCc1ccc2ccn(C3CCN(CCc4ccc(F)cc4)CC3)c2c1 | 172 to 173 |
